Experimental data from patent US12533327B2, “Hexylamine salts and methods of using hexylamine” (priority 2019, dated 2026).
Structures can show the parent of a compound that is named as a salt.

Experiments:
human subject = experiment: Human tolerance of hexylamine succinate; format: in vivo; details: one subject, 250 lbs, daily dose increased from 100 mg
Method: A human subject (250 lbs) was administered a single 100 mg hexylamine succinate, and their tolerance to the salt was record. The daily dose was increased increased daily to determine the highest daily dose that could be tolerance by the subject. At a daily dose of 800 mg and higher, the subject reported side effects such as feelings of discomfort.

[1] = Pharmacotechnical properties of synthesized hexylamine salts (state, hygroscopicity, solubility, dissolution, stability)
[2] = Shelf life comparison, salts left exposed to air for a month; format: physicochemical
From the text: FIG. 1 depicts a comparison of hexylamine succinate and hexylamine tartrate after being left exposed to air for a period of a month.
Hexylamine succinate and hexylamine tartrate were left exposed for a period of a month.

[3] = Storage of hexylamine succinate in the atmosphere, water gain; format: physicochemical; details: over one week of storage
Method: Hexylamine succinate (structure shown in Formula II) was effectively synthesized by pouring an equimolar amount of hexylamine into succinic acid powder while continuously stirring in an ice bath so that the temperature of the salt solution would be […].

human subjects [4] = format: in vivo
Method: Five human subjects were given 100-600 mg hexylamine succinate each day over a period of a month or four weeks (see Table 1).
Over the course of the treatment period, two of the subjects who ingested hexylamine daily experienced a weight loss of 3 pounds without making any changes to their diet or exercise regimen. With the administration of 600 mg hexylamine succinate (equaling 276 mg of hexylamine base), the subjects' body temperature would rise by about 0.5° C.
None of the subjects experienced any of the toxic side effects described for too much exposure hexylamine, which include, burning sensation, abdominal pain, shock, or collapse. However, the effectiveness would diminish with doses less than 100 mg.

human = details: cited from earlier work
[5] = standard temperature and pressure; cited from earlier work
human subjects [6] = experiment: Iowa trail making test; format: in vivo; details: 1000 mg tri-hexylamine citrate oral vs placebo
From the text: The Iowa trail making test assesses visual attention and task switching. In map A, the subject is to draw lines to connect circled numbers in a numerical sequence (1-2-3- . . . ) as rapidly in possible. In map B, the subject is to draw lines to connect circled numbers and letters in an alternating numeric and alphabetic sequence (1-A-2-B- . . . ) as rapidly as possible. Accordingly, map A assesses cognitive processing speed, while map B asses executive function. If the subject makes an error, it was immediately pointed it out and the subject was allowed correct it. Accordingly, errors affect the score only in that the correction of errors is included in the completion time for the task. […] Thus, hexylamine administration improves executive function.

human subjects [7] = system: human subjects
[8] = cited from earlier work
[9] = Physiological effects of propylamine and amylamine; format: in vivo; details: doses starting at 300 mg
From the text: Propylamine, […], a close chemical entity to hexylamine, has been used in the distant past as a sedative at doses of 2-10 grams (Page 892 of The Standard Medical Directory of North America 1902, GP Engelhard and Company, Chicago). […] Accordingly, compound having similar structure to hexylamine were expected to reduce alertness and cognitive function due to their sedative effects (from de facto slowdown of brain activity).

human subjects [10] = experiment: Administration of […] and caffeine, caffeine side effects; details: same subjects, 300 mg caffeine alone
[11] = Citrate salts left exposed to air for one day; format: physicochemical
From the text: FIG. 2 depicts a comparison of monohexylamine citrate and tri-hexylamine citrate after being left exposure to air for one day.

[12] = Organoleptic properties and contact irritation of hexylamine and its salts
[13] = Time course of tri-hexylamine citrate in water; format: physicochemical; details: one gram scattered over 100 ml water at room temperature
Method: FIG. 3 depicts a time course of tri-hexylamine citrate in water. One gram of tri-hexylamine citrate was scattered over 100 ml water at room temperature (left). About one minute after, all of the tri-hexylamine citrate was dissolved (right).

human subjects [14] = experiment: Psychomotor vigilance test via sleep-2-Peak mobile application; format: in vivo; details: 1000 mg oral vs placebo, p=0.0015
From the text: Statistically significant results were obtained from the cognitive function tests.

human subjects [15] = experiment: Activity of hexylamine salt forms on human subjects; format: in vivo; details: taken as a capsule, compared with other salts of hexylamine
human subjects [16] = experiment: Effect of tri-hexylamine citrate on physical performance; format: in vivo; details: four subjects, 1000 mg 30 minutes before exercise
Method: Four human subjects ingested 1000 mg tri-hexylamine citrate 30 minutes before performing their regular exercise.

[17] = five subjects, 100-600 mg each day for a month

CCCCCCN.O=C(O)CCC(=O)O [Hexylamine succinate]
daily dose at which side effects such as feelings of discomfort were reported (human subject): ≥ 800 mg | hygroscopicity [1]: non-hydroscopic | solubility in water [1]: good solubility and dissolution rate | state of the powder and moisture uptake [2]: remained a fine powder and gained little moisture | hygroscopicity [3]: non-hygroscopic | water gained in the atmosphere [3]: less than 1% | rise of body temperature (human subjects [4]; 600 mg hexylamine succinate (276 mg hexylamine base)): about 0.5 °C | appetite (human subjects [4]; [17]): reduced appetite | athletic performance (human subjects [4]; [17]): increase in athletic performance | body temperature (human subjects [4]; [17]): increased body temperature | endurance (human subjects [4]; [17]): increase in endurance | fatigue (human subjects [4]; [17]): reduction of fatigue | heart rate (human subjects [4]; [17]): increase in heart rate | increase in diastolic blood pressure, average (human subjects [4]; [17]): 2 mm | increase in systolic blood pressure, average (human subjects [4]; [17]): 8 mm | memory recollection (human subjects [4]; [17]): improved memory recollection | mental acuity (human subjects [4]; [17]): increased mental acuity | mood (human subjects [4]; [17]): improved mood | strength (human subjects [4]; [17]): increase in strength | sweating (human subjects [4]; [17]): increased sweating

CCCCCCN [Hexylamine]
toxicity label (human; Phytochemical Dictionary, second edition): highly toxic in any quantity | blood pressure and other physiological effects (human; administered to a human (Alles 1941)): no change in blood pressure or any other physiological effect was observed | solubility in organic solvents [5]: soluble in almost all organic solvents | average completion time, map A (human subjects [6]; not statistically significant): reduced the average time | change of average completion time, map B (human subjects [6]; p=0.0020): -12.5 s | discomfort or serious side effects (human subjects [7]; twelve healthy subjects, 1000 mg oral, blinded crossover vs placebo): None of the subjects experienced any discomfort or any serious side effect | tolerability (human subjects [4]; five subjects, none had toxic side effects (burning sensation, abdominal pain, shock, collapse)): generally well-tolerated | dose below which the effectiveness would diminish (human subjects [4]; human, in vivo): less than 100 mg | weight loss (human subjects [4]; two of the subjects, daily ingestion over the treatment period, no change of diet or exercise): 3 pounds

CCCN [Propylamine]
physiological use ([8]; doses of 2-10 grams (Standard Medical Directory of North America 1902)): sedative

CCCCCN [amylamine, Amylamine]
body temperature [9]: a drop in body temperature | heart rate [9]: reduction in heart rate | cardiac function, heartbeat and body temperature ([8]; King's American Dispensatory 1909): reduce cardiac function, reduce heartbeat, and reduce body temperature

Cn1c(=O)c2c(ncn2C)n(C)c1=O [caffeine]
jittery sensation or caffeine crash (human subjects [10]): experience at leas tone of these side effects

CCCCCCN.O=C(O)C(O)C(O)C(=O)O (stereo not shown) [hexylamine tartrate]
state of the powder and moisture uptake [2]: absorbed moisture from the atmosphere and suffered from extensive caking

CCCCCCN.O=C(O)CC(O)(CC(=O)O)C(=O)O [mono-hexylamine citrate]
dissolution rate in water [1]: much slower dissolution rate in water | hygroscopicity [1]: very hygroscopic | state of the salt [11]: hardened into a solid mass

O=[N+]([O-])O [nitrate]
effect on contact with skin, tongue or mouth [12]: very irritating on contact with the skin or mouth

CCCCCCN [tri-hexylamine citrate]
dissolution rate in water [1]: dissolves faster than all other salts of hexylamine in water | stability of the salt [1]: very stable salt | time until all was dissolved [13]: About one | change of average reaction time (human subjects [14]): -70.1 ms | reduction of average reaction time (human subjects [14]): 18% | onset of effect (human subjects [15]): has a faster effect on human subjects | state of the salt [11]: suffered from some caking | focus and energy, self-reported (human subjects [16]): feeling more focused and energetic | sense of fatigue during and after exercise (human subjects [16]): reduced sense of fatigue | repetitions on knee extensions and bench press (human subjects [16]; vs no supplement): greater number of repetitions | time to exhaustion on the treadmill (human subjects [16]; vs no supplement): longer time to exhaustion | diastolic pressure, group (human subjects [7]; 1000 mg oral vs placebo): no significant difference | heart rate, group (human subjects [7]; 1000 mg oral vs placebo): no significant difference | systolic blood pressure, group (human subjects [7]; 1000 mg oral vs placebo): no significant difference | self-mood assessment test (human subjects [7]; 1000 mg oral vs placebo, scale 1-10): did not show any statistically significant results | blood pressure (human subjects [7]; 1000 mg oral vs placebo, up to 50 minutes after administration): largely unaffected
